Data from US20210338767A1, “METHODS OF SELECTING TREATMENT FOR CXCR4-ASSOCIATED CANCER” (BioLineRx Ltd., priority 2018, published 2021).
Positions of bridges follow the written chain, without caps; N, C: chain ends. Non-standard residues stand in square brackets, D forms with d. *: point of attachment. Benzoyl(4-F) = O=C(c1ccc(F)cc1)*; Cit = NC(=O)NCCC[C@H](N)C(=O)O

Key:
[1] = system: malignant cells of hematopoietic origin including AML; conditions: cited from earlier work
CXCR4 receptor = molecular target: T1, CXCR4 receptor (Homo sapiens, UniProt P61073); test: Pharmacodynamic assessment: CXCR4 receptor occupancy prior and post BL-8040 treatment; assay type: in vivo
T1 construct: Fold change in level of occupied CXCR4 receptor prior and post treatment with low (0.5, 0.75 and 1 mg/kg) and high; endogenous in cells
T1 sequence (P61073 whole entry): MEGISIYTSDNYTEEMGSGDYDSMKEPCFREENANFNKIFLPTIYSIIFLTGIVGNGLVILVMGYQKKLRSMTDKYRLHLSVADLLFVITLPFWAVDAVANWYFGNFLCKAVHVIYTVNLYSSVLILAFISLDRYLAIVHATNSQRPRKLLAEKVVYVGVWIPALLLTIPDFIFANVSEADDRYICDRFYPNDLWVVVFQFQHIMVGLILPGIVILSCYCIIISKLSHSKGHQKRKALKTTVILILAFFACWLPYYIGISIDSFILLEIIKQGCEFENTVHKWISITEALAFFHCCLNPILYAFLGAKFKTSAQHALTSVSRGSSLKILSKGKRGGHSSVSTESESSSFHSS
Method: (§1) FIGS. 3A-D show BL-8040 Mediated CXCR4 Receptor Occupancy and Induce Mobilization and Differentiation of AML Blasts. (A) Fold change in level of occupied CXCR4 receptor prior and post treatment with low (0.5, 0.75 and 1 mg/kg) and high (1.25, 1.5 and 2 mg/kg) BL-8040 dose levels. (B) Fold change in AML blast counts pre and post BL-8040 and BL-8040+HiDAC treatments in responders and non-responders. (C) Fold change in the level of AML blasts in the BM following BL-8040 treatment (D) Change in levels of BM Granulocytes following 2 days of BL-8040 treatment.
Receptor occupancy is typically assessed using two monoclonal antibodies (mAbs) binding to two different epitopes of the CXCR4 antigen. […] It will be appreciated that receptor occupancy can also be determined by using an antibody which binds peptide-free CXCR4 prior to and post contacting with the peptide (e.g., 12G5, supra).
According to a specific embodiment, the receptor occupancy is determined as follows: Percent or number of CXCR4 expressing cells (e.g., using 12G5 Ab) post drug (e.g., SEQ ID NO: 1) treatment out of percent or number of CXCR4 expressing cells (e.g., using 12G5 Ab) prior to drug (e.g., SEQ ID NO: 1) treatment *100, such a calculation provides receptor occupancy per cell.

[2] = system: relapsed or refractory AML; test: Phase 2a study of BL-8040 combined with high dose Ara-C (HiDAC) in relapsed/refractory AML: efficacy; assay type: in vivo, human
Source text: Subjects were accrued in a conventional 3+3 design.
Follow-up period started after completion of Ara-C chemotherapy and continued for up to 6 weeks after initiation of salvage chemotherapy with Ara-C, i.e., up to Day 44. Subjects participating in the expansion phase were followed for up to 5 years after completion of the follow-up period. Subjects were contacted by telephone at approximately 3-month intervals (±1 month) after the end of the follow-up period to determine AML status and survival.

AML blasts = test: Pharmacodynamic assessment: mobilization and differentiation of AML blasts (peripheral blood, bone marrow); assay type: in vivo, human
Method: as §1

[3] = all patients at all BL-8040 dose levels (N=42)
[4] = responding subjects at the 1.5 mg/kg dose (9/23 with CR/CRi)
[5] = responding subjects within the 1.5 mg/kg dose group
[6] = subjects receiving 1.5 mg/kg (N=23)
[7] = responding patients following BL-8040 treatment vs baseline, compared to non-responders

4F-benzoyl-Arg-Arg-Nal-Cys-Tyr-Cit-Lys-DLys-Pro-Tyr-Arg-Cit-Cys-Arg-NH2 ({Benzoyl(4-F)}-RR[Nal]CY[Cit]K[dK]PYR[Cit]CR-NH2; disulfide 4-13 (inferred)) [BL-8040]
cytotoxicity toward malignant cells [1]: CXCR4-dependent preferential cytotoxicity
CXCR4 receptor occupancy (CXCR4 receptor; high BL-8040 dose levels (1.25, 1.5 and 2 mg/kg)): demonstrated CXCR4 receptor occupancy
CXCR4 receptor occupancy (CXCR4 receptor; low BL-8040 dose levels (0.5, 0.75 and 1 mg/kg)): insignificant changes in receptor occupancy
1-year survival rate [2, 3]: 37.2%
2-years survival rate [2, 3]: 20%
3-years survival rate [2, 3]: 16%
median overall survival (mOS) ([2]; all patients at all BL-8040 dose levels (N=42), with HiDAC): 9.1 months
composite CR rate (CR and CRi) ([2]; expansion group that received 1.5 mg/kg BL-8040 (9/23), with HiDAC): 39%
composite CR rate (CR and CRi) ([2]; refractory patients (9/19), with HiDAC): 47%
composite CR rate (CR and CRi) ([2]; relapsed patients (3/23), with HiDAC): 13%
1-year survival rate [2, 4]: 66.7%
2-years survival rate [2, 4]: 44.4%
3-years survival rate [2, 4]: 44.4%
median overall survival (mOS) [2, 4]: 21.8 months
EFS at 1 year [2, 5]: 55.6%
EFS at 2 years [2, 5]: 22.2%
EFS at 3 years [2, 5]: 22.2%
median duration of response (mDOR) [2, 5]: 17.4 months
1-year survival rate [2, 6]: 38.1%
2-year survival rate [2, 6]: 23.8%
3-year survival rate [2, 6]: 23.8%
median overall survival (mOS) [2, 6]: 10.7 months
levels of granulocytes in BM (AML blasts; responders vs non-responders relative to screening, following BL-8040 treatment): Statistically significant increased levels of granulocytes
leukemic blasts in BM (AML blasts; [7]): decreased numbers of leukemic blasts in BM
mobilized leukemic blasts in peripheral blood (AML blasts; [7]): statistically significant increased numbers of mobilized leukemic blasts
